From patent publication US20150094376A1, “Hexamethonium Reverses the Lethal Cardiopulmonary Damages in a Rat Model of Brain Stem Lesions Mimicking Fatal Enterovirus 71 Encephalitis” (Kaohsiung Veterans General Hospital, priority 2013, published 2015)

How the values were obtained:
Assay type in all cases: in vivo, Sprague Dawley rats
[1] = tested on: rats with bilateral 6-OHDA lesions of the NTS; test: BP and HR recording and survival in rats with 6-OHDA lesions of the NTS (rat model mimicking fatal EV 71 encephalitis); details: for survival time after NTS lesion: n=6, 6-OHDA rats died within 7 hours
Text: (§1) Three sets of experiments were designed according to the three specific aims mentioned above. The first set of experiments was to establish a rat model by micro-injecting 6-hydroxydopamin (6-OHDA) into NTS leading to acute fulminating hypertension and pulmonary hemorrhagic edema. We recorded the blood pressure (BP) and heart rate (HR) in trend. Two groups of rats (n=6 in each group) were studied: 1) an intervention group in which 6-OHDA (Sigma, […]) dissolved in vehicle (0.8% ascorbic acid in saline) was injected into NTS bilaterally; and 2) a control group that received injections of equal volumes of vehicle alone. Each group of rats was anesthetized with urethane (1 g/kg, i.p.) and connected to oscillator circuits for BP and HR recording via […]. For microinjections into the NTS, the rats were anesthetized and placed in a stereotaxic frame; then the dorsal surface of the medulla was exposed. A glass cannula was filled with L-glutamate (0.154 mmol/60 n1) to functionally identify the NTS.
(§2) The third set of experiments (intervention-treatment and control-treatment groups) was to infuse the ganglionic blocker (hexamethonium (Sigma), 25 mg/kg, iv) via the femoral vein at the time point of 10 minutes after NTS lesion to record BP and HR in trend (n=6 in each group) and the rats respectively were sacrificed at the time point (0, 3, 6 and 12 hours) for analyzing the parameters as discussed in the second set of experiments.

[2] = tested on: control rats with NTS microinjected with vehicle; test: BP and HR recording in control-treatment group (vehicle injected into NTS, then hexamethonium); details: no 6-OHDA lesion; hexamethonium 25 mg/kg iv
Text: as §1, with “NTS. […]” for “NTS.”

[3] = tested on: rats with bilateral 6-OHDA lesions of the NTS; test: Epinephrine and norepinephrine levels by enzyme immunoassay in rats with 6-OHDA lesions
Description: as §2
All blood samples were collected into micro-tubes and placed immediately into to an ice bath. The samples, then, were centrifuged at 10000 rpm for 20 minutes at 4° C. Aliquots of plasma were removed and stored at −80° C. until assayed for content of epinephrine and norepinephrine within four weeks utilizing enzyme immunoassay for the high-sensitive quantitative determination by Labor Diagnostika Nord-Medicrop Inc.

[4] = tested on: rats with bilateral 6-OHDA lesions of the NTS; test: Echocardiography in rats with 6-OHDA lesions
Description: After the first set of the rat model was established, the second set of experiments intended to determine some time points for analysis. Rats were anesthetized with pentobarbital (50 mg/kg, ip) before NTS lesion. After surgery (lesion of the NTS), the wounds were closed and the rats were removed from the stereotaxic frame for further observation. Each rat was placed in a small cage and woken within 30 minutes for free activity. The rat were respectively sacrificed (intervention and control group, n=6 in each group) at different time point (0, 3 and 6 hours) for analyzing histopathology and biochemistry from blood, brain, heart and lung. Before sacrificing, echocardiography was performed to exanimate left ventricular (LV) wall thickness and cardiac function.
as §2
Rats were immobilized and shaved on the chest for echocardiographic examinations using commercially available equipment (Vivid 7, GE Ultrasound, Horten, Norway) equipped with 10-MHz phased array transducers. All the records were stored digitally as two-dimensional cine loops and analyzed with customized dedicated research software (Echo PAC, GE Ultrasound, Horten, Norway). Two-dimensionally guided M-mode recordings were obtained from the parasternal short-axis view at a depth of 2 cm at the level of the papillary muscles. M-Mode tracing were recorded at a speed of 200 mm/s. The measurements were made using the method of the American Society of Echocardiography and the parameters were measured digitally on the M-mode tracing and averaged from 5 consecutive cardiac cycles.

[5] = tested on: rats with bilateral 6-OHDA lesions of the NTS; test: Heart histopathology and immunohistochemistry (H&E, troponin T, BNP, connexin 43) in rats with 6-OHDA lesions
Description: as §2
(§3) For hematoxylin and eosin staining, the rat brain, heart, and lungs were excised immediately after blood sampling. They were rinsed with saline, free from blood or fatty tissue, lightly blotted with filter paper, and then were placed in 10% formalin for five days and blocked, embedded in paraffin, cut in 4 μm sections, and stained with hematoxylin and eosin.
(§4) Immunohistochemical analysis (troponin T and brain natriuretic peptide in heart tissue, neutrophil cell in lung tissue, and connexin 43 assays in the lung and heart tissues) was performed on the sections after the paraffin was melted in an oven at 70° C. for one hour. The sections were deparaffinized, microwaved in citric buffer (10 mmol/L, pH 6.0), blocked in 3% goat serum, and incubated with anti-cardiac troponin T antibody (1:200; Abeam), anti-myosin VIIa antibody (1:200; Abeam), anti-brain natriuretic peptide polyclonal antibody (1:1000; Thermo Fisher Scientific Inc.), anti-neutrophil elastase antibody (1:400; Abeam), and anti-connexin 43/GJA1 antibody (1:200; Abcam) overnight at 4° C. Next, the sections were incubated with biotinylated secondary antibodies (1:200; Vector Laboratories, Burlingame, Calif., USA) for one hour and in AB complex (1:100) for 30 minutes at room temperature. The sections were visualized with a DAB substrate kit (Vector Laboratories) and counterstained with hematoxylin. The sections were then photographed with a microscope mounted with a charge-coupled device camera.

[6] = tested on: rats with bilateral 6-OHDA lesions of the NTS; test: Pulmonary edema index and gross lung specimens in rats with 6-OHDA lesions; details: n=6 per group
Description: as §2
After the blood-sampled rats were sacrificed, the chest each of the rats was opened to remove the lung and the heart, and then the skull was opened for NTS tissue. To estimate the liquid accumulation in the lungs, both lungs were weighted, then dried in an oven at 80° C. for two days and weighted as dry lung weight. The total weight/body multiplies by 100 and wet-to-dry lung weight ratio were calculated for indicating the degree of pulmonary edema.

[7] = tested on: rats with bilateral 6-OHDA lesions of the NTS; test: Lung histopathology and immunohistochemistry (H&E, PMN, connexin 43) in rats with 6-OHDA lesions; details: n=6 per group
Description: as §2, §3, §4

SMILES: C[N+](C)(C)CCCCCC[N+](C)(C)C [hexamethonium]
- HR at 3 hours ([1]; 25 mg/kg iv 10 minutes after 6-OHDA lesion, 3 hours): no significant reduction in HR
- HR immediately after hexamethonium ([1]; 25 mg/kg iv 10 minutes after 6-OHDA lesion, immediately): a reduction in HR
- acute hypertension induced by 6-OHDA lesions ([1]; hexamethonium 25 mg/kg iv 10 minutes after NTS lesion, FIG. 1B): reversed
- acute high rise in mean blood pressure (MBP) caused by 6-OHDA lesions ([1]; hexamethonium 25 mg/kg iv 10 minutes after NTS lesion, FIG. 1C, n=6 per group): significantly reversed
- survival time after NTS lesion ([1]; hexamethonium 25 mg/kg iv 10 minutes after NTS lesion): at least 14 hours
- survival time after NTS lesion ([1]; hexamethonium 25 mg/kg iv 10 minutes after NTS lesion, listed as Hexamethonium): more than 14 hours
- labored breathing ([1]; hexamethonium 25 mg/kg iv 10 minutes after NTS lesion, up to 14 hours post NTS lesion): did not exhibit significantly labored breathing until 14 hours
- HR in control-treatment group [2]: no associated significant change in HR
- mean blood pressure in control-treatment group [2]: significantly decreased
- level of epinephrine at 6 hours, 6-OHDA vs 6-OHDA+Hexamethonium ([3]; 6 hours): no significant differences
- level of norepinephrine at 6 hours, 6-OHDA vs 6-OHDA+Hexamethonium ([3]; 6 hours): no significant differences
- acute high rise of epinephrine serum level post 6-OHDA lesions ([3]; within 3 hours after hexamethonium treatment, FIG. 1D, n=6 per group): significantly lowered
- acute high rise of norepinephrine serum level post 6-OHDA lesions ([3]; within 3 hours after hexamethonium treatment, FIG. 1E, n=6 per group): significantly lowered
- acute increase in fraction shortening ([4]; 3 hours): attenuated or reversed
- decrease in the LV internal dimension in diastole and systole ([4]; 3 hours and 6 hours): reversed or attenuated
- acute decrease in cardiac output after 6-OHDA lesions ([4]; 3 hours and 6 hours, FIG. 2E): prevented
- acute increase in ejection fraction ([4]; 3 hours, FIG. 2F): attenuated or reversed
- acute increase in LV wall thickness ([4]; 3 hours, FIGS. 2G and 2H): attenuated or reversed
- increase of irregular wavy fibers with increased eosinophilic staining of the cytoplasm and contraction bands necrosis in heart (H&E) ([5]; 3 hours and 6 hours, FIG. 3A, n=6 per group): prevented
- increased BNP staining in the cytoplasm (heart) ([5]; 3 hours and 6 hours, FIG. 3C, n=6 per group): reduced
- increased and strong expressions of connexin 43 in heart muscle ([5]; 3 hours and 6 hours, FIG. 3D, n=6 per group): reduced
- increased expression of cardiac troponin T ([5]; 6 hours, FIGS. 3B and 3E, n=4 per group): reduced
- mild and severe lung congestion (gross lungs) ([6]; 3 hours and 6 hours, FIG. 4A): prevented
- increased wet-to-dry lung weight ratio (W/D) ([6]; 6 hours, FIG. 4B): reversed
- increased total lung/body weight (BW) ([6]; 6 hours, FIG. 4C): reversed
- increased infiltrates of red blood cells and formation of hyaline membrane in lung (H&E) ([7]; 3 hours and 6 hours, FIG. 5A): prevented
- increased expressions of connexin 43 in lung ([7]; 3 hours and 6 hours, FIG. 5C): attenuated
- increased infiltrates of PMN in lung ([7]; 6 hours, FIG. 5B): reduced
